Source: US12503482B2, “Compositions and methods for trehalose phospholipids” (The Brigham and Women's Hospital, Inc., priority 2019, dated 2025)
Numbering of substitutions follows the chain as printed. Read-outs that look alike come from different tables or passages of the source.

Tests used:
Assay type in all cases: cell-based
murine Mincle = molecular target: T1, murine Mincle (Mus musculus, UniProt Q9R0Q8); test: Mincle activation assay, murine Mincle-FcRγ GFP reporter cell line with plate-coated lipids
T1 construct: expressed in transfected cells; host or cells: 2B4-NFAT-GFP cells
T1 sequence (Q9R0Q8 1-214): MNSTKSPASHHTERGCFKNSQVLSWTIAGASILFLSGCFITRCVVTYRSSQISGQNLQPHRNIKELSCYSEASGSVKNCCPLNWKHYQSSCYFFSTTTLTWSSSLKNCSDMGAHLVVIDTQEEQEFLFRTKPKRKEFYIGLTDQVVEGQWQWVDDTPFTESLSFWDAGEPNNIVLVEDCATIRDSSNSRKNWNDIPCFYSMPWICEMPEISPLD
T1 sequence (P20491 19-86 partner): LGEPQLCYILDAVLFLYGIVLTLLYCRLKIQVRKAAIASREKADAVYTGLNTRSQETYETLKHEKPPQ

FcRγ = test: Negative control reporter cell line expressing FcRγ only; settings: FIG. 3D
human Mincle = molecular target: T2, human Mincle (Homo sapiens, UniProt Q9ULY5); test: Mincle activation assay, human Mincle-FcRγ GFP reporter cell line with plate-coated lipids; settings: FIG. 3D
T2 construct: expressed in transfected cells; host or cells: 2B4-NFAT-GFP cells
T2 sequence (Q9ULY5 1-219): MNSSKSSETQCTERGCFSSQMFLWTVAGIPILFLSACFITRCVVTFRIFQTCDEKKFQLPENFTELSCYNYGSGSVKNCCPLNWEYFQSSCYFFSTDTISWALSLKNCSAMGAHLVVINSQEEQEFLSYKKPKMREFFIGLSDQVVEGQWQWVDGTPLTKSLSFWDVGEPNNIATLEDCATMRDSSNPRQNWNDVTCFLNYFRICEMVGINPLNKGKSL
T2 sequence (P30273 19-86 partner): T1 sequence (P20491 19-86 partner) with V13I, A38T, R40Y, A43S, A45G, N51S, S54N

Compound | amount of coated lipid at which reporter cells respond (GFP expression) (murine Mincle) | relative sensitivity of murine Mincle to diPT versus TDM (murine Mincle; FIG. 3D) | activation of murine Mincle reporter cell line (murine Mincle; comparison of murine and human reporter lines, FIG. 3D) | amount of coated lipid at which reporter cells respond (GFP expression) (murine Mincle; murine Mincle-FcRγ reporter cell line, plate-coated lipid, FIG. 3C) | activation of negative control cell line expressing FcRγ only (FcRγ) | relative sensitivity of human Mincle to diPT versus TDM (human Mincle) | activation of human Mincle reporter cell line (human Mincle; comparison of murine and human reporter lines)
6,6′-diphosphatidyltrehalose [natural diPT] | 5 ng |  |  |  |  |  | 
CCCCCCCCCCCCCCCC(=O)OC[C@H](COP(=O)(O)OCC1OC(OC2OC(COP(=O)(O)OC[C@@H](COC(=O)CCCCCCCCCCCCCCC)OC(=O)CCCCCCC[C@H]3C[C@H]3CCCCCC)C(O)C(O)C2O)C(O)C(O)C1O)OC(=O)CCCCCCC[C@H]1C[C@H]1CCCCCC (some centres unmarked) [synthetic diPT, 6,6′-diphosphatidyltrehalose] |  | the opposite is true | activation present at nanogram levels | 20 ng | failed to activate | marginally more sensitive to diPT than to TDM | activation present at nanogram levels
trehalose dimycolate [TDM, reference compound] | 5 ng |  |  |  |  |  | 
